Laboratory results from BindingDB's records for doi:10.1021/acs.jmedchem.5b00865 (A.V. Bogatsky Physico-Chemical Institute of The National …, 2015).
pIC50: −log10 of the molar value.

Columns and labels:
[1] = target: Integrin alpha-IIb/beta-3 (Homo sapiens); assay: Antagonist activity against integrin alpha2bbeta3 closed form in human platelet rich plasma assessed as inhibition of ADP-induced platelet aggregation
[2] = target: Integrin alpha-IIb/beta-3 (Homo sapiens); assay: Antagonist activity against integrin alpha2bbeta3 open form in human platelet rich plasma assessed as inhibition of ADP-induced platelet aggregation

Compound | pIC50 [1] | pIC50 [2]
NCCC(=O)Nc1ccc2nc(N3CCNCC3)[nH]c(=O)c2c1 | 6.82 | –
NCCCC(=O)Nc1ccc2nc(N3CCNCC3)[nH]c(=O)c2c1 | 7.96 | –
O=C(Nc1ccc2nc(N3CCNCC3)[nH]c(=O)c2c1)C1CCNCC1 | 7.00 | –
O=C(CCNC(=O)c1ccc2c(c1)CNCC2)NC[C@@H](NS(=O)(=O)c1ccccc1)C(=O)O | – | 7.60
O=C(CCNC(=O)c1ccc2c(c1)CNCC2)NC[C@H](NS(=O)(=O)c1ccccc1)C(=O)O | – | 8.21

The remaining lines, values ahead:

pIC50 [1] | pIC50 [2] | Compound
– | 6.17 | CCCCS(=O)(=O)N[C@H](CNC(=O)CCNC(=O)c1ccc2c(c1)CNCC2)C(=O)O
– | 6.49 | CCCCS(=O)(=O)N[C@@H](CNC(=O)CCNC(=O)c1ccc2c(c1)CNCC2)C(=O)O
